Data: patent US12729211B2, “Gold(III) compounds and cancer cell-selective modulation of mitochondrial respiration and metabolism” (University of Kentucky Research Foundation, priority 2020, dated 2026)

Legend:
MDA-MB-468 [1] = test: Mitochondrial ROS (mtROS) by MitoSOX FACS; assay type: cell-based; conditions: MitoTEMPO 1 μM 2 hours, then 2a 10 μM 2 hours
From the text: Second, to solidify the specificity of ROS, the use of MitoSOX was employed, which is a mitochondrial targeting dye that specifically reacts with superoxide.
First, the effect of pre-treatment on mtROS production was examined using flow cytometry. Since MitoTEMPO is a specific scavenger for superoxide, the potential to alleviate mitochondrial oxidative damage was investigated by scavenging mtROS once produced. […] In this experiment, Rotenone, a mitochondrial complex I inhibitor, was used as a positive control.

MDA-MB-468 [2] = test: MMP by JC-1 FACS, MDA-MB-468; assay type: cell-based
From the text: The MMP depolarizing effect on the panel of TBNCs and healthy models was examined with the use of flow assisted cell sorting (FACS) (FIG. 19A-C). JC-1 was used, a cationic, fluorometric dye that is dependent on the negative charge of the MMP. It is represented as J-aggregates (red fluorescence) when it accumulates into the mitochondria and J-monomers (green fluorescence) when it is located outside the mitochondrial membrane due to loss of the electrochemical gradient.
Next, the effect of MMP was examined when pretreated with MitoTEMPO (1 μM, 2 hours) (FIG. 34).

Molecule | decrease in mtROS versus the non-pretreated group (MDA-MB-468 [1]) [fold] | loss of MMP, MitoTEMPO pretreatment (MDA-MB-468 [2]) [%] | loss of MMP, no pretreatment (MDA-MB-468 [2]) [%]
CC1(C)CC(NC(=O)C[P+](c2ccccc2)(c2ccccc2)c2ccccc2)CC(C)(C)N1[O] [MitoTEMPO] | 1.8 | – | –
Carbonyl cyanide m-chlorophenyl hydrazine [CCCP] | – | 84 | 95
